# Measured values from PubChem BioAssay (NCI).
#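 Compound exposure: 48 hours, 5 concentrations, 96-well plates. TGI denotes the concentration required for complete inhibition of growth.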
# Assays:
# Assay in all cases: inhibition of tumour cell growth, NCI panel, 48 h
# [1] = system: A498 renal
# [2] = system: SF-268 CNS
# [3] = system: SK-MEL-2 melanoma
# [4] = system: PC-3 prostate
# [5] = system: HS 578T breast
# [6] = system: COLO 205 colon
# [7] = system: KM12 colon
# [8] = system: NCI/ADR-RES ovarian
# [9] = system: HCT-15 colon
# [10] = system: MDA-MB-231 breast
# [11] = system: SF-295 CNS
# [12] = system: SK-MEL-5 melanoma
# [13] = system: MDA-MB-435
# [14] = system: MCF7 breast
# [15] = system: NCI-H522 lung
# [16] = system: CAKI-1 renal
# [17] = system: HCC-2998 colon
# [18] = system: MDA-N
# [19] = system: ACHN renal
# [20] = system: A549 NSCLC
# [21] = system: UACC-257 melanoma
# [22] = system: TK-10 renal
# [23] = system: HCT-116 colon
# [24] = system: SF-539 CNS
# [25] = system: SK-MEL-28 melanoma
# [26] = system: HOP-62 NSCLC
# [27] = system: OVCAR-3 ovarian
# [28] = system: HL-60(TB) leukemia
# [29] = system: RXF 393 renal
# [30] = system: U251 CNS
# [31] = system: LOX IMVI melanoma
# [32] = system: K-562 leukemia
# [33] = system: SW-620 colon
# [34] = system: HT29 colon
# [35] = system: NCI-H226 lung
# [36] = system: OVCAR-5 ovarian
# [37] = system: RPMI-8226 leukemia
# [38] = system: SK-OV-3 ovarian
# [39] = system: 786-0 renal
# [40] = system: OVCAR-4 ovarian
# [41] = system: UO-31 renal
# [42] = system: MOLT-4 leukemia
# [43] = system: UACC-62 melanoma
# [44] = system: T-47D breast
# [45] = system: SNB-75 CNS
# [46] = system: SN12C renal
# [47] = system: SNB-19 CNS
# [48] = system: EKVX NSCLC
# [49] = system: CCRF-CEM leukemia
# [50] = system: NCI-H23 lung
# [51] = system: HOP-92 NSCLC
# [52] = system: OVCAR-8 ovarian
# [53] = system: M14 melanoma
# [54] = system: MALME-3M melanoma
# [55] = system: NCI-H460 lung
# [56] = system: BT-549 breast
# [57] = system: IGROV1 ovarian
# [58] = system: DU-145 prostate
# [59] = system: SR leukemia
smiles,measurement,setting,value
CCOC(=O)c1c(CN2CCNCC2)nc2ccccc2c1-c1ccccc1,TGI,[1],28.3 µM
same,TGI,[2],27.8 µM
same,TGI,[3],29.3 µM
same,TGI,[4],27.3 µM
same,TGI,[5],35.9 µM
same,TGI,[6],35.8 µM
same,TGI,[7],31.2 µM
same,TGI,[8],34.4 µM
same,TGI,[9],32.8 µM
same,TGI,[10],29.3 µM
same,TGI,[11],29 µM
same,TGI,[12],28.5 µM
same,TGI,[13],28.5 µM
same,TGI,[14],28.1 µM
same,TGI,[15],29 µM
same,TGI,[16],25.7 µM
same,TGI,[17],3.63 µM
same,TGI,[18],23.3 µM
same,TGI,[19],30.4 µM
same,TGI,[20],33.1 µM
same,TGI,[21],15.7 µM
same,TGI,[22],27.3 µM
same,TGI,[23],23.7 µM
same,TGI,[24],34.8 µM
same,TGI,[25],25.1 µM
same,TGI,[26],31 µM
same,TGI,[27],31.8 µM
same,TGI,[28],30.6 µM
same,TGI,[29],13.8 µM
same,TGI,[30],27.5 µM
same,TGI,[31],31.6 µM
same,TGI,[32],27.2 µM
same,TGI,[33],34.9 µM
same,TGI,[34],17.8 µM
same,TGI,[35],37.9 µM
same,TGI,[36],31.1 µM
same,TGI,[37],32.5 µM
same,TGI,[38],30.1 µM
same,TGI,[39],25.3 µM
same,TGI,[40],33.1 µM
same,TGI,[41],21.7 µM
same,TGI,[42],25 µM
same,TGI,[43],28.2 µM
same,TGI,[44],30 µM
same,TGI,[45],20.5 µM
same,TGI,[46],28.2 µM
same,TGI,[47],33.6 µM
same,TGI,[48],29.3 µM
same,TGI,[49],38.2 µM
same,TGI,[50],36 µM
same,TGI,[51],17.7 µM
same,TGI,[52],30.6 µM
same,TGI,[53],28.2 µM
same,TGI,[54],22 µM
same,TGI,[55],28.4 µM
same,TGI,[56],31.9 µM
same,TGI,[57],29.2 µM
same,TGI,[58],31.3 µM
Clc1ccc(Cc2nc3ccccc3nc2-c2cccc(Br)c2)cc1,TGI,[2],44.9 µM
same,TGI,[3],17.8 µM
same,TGI,[4],4.88 µM
same,TGI,[5],3.57 µM
same,TGI,[6],12 µM
same,TGI,[7],33.7 µM
same,TGI,[8],15.3 µM
same,TGI,[9],3.11 µM
same,TGI,[10],14.1 µM
same,TGI,[11],31.2 µM
same,TGI,[12],27.5 µM
same,TGI,[13],4.71 µM
same,TGI,[14],11.3 µM
same,TGI,[15],3.62 µM
same,TGI,[16],5.1 µM
same,TGI,[17],3.36 µM
same,TGI,[18],4.19 µM
same,TGI,[19],3.44 µM
same,TGI,[20],35.6 µM
same,TGI,[21],7.7 µM
same,TGI,[22],30.4 µM
same,TGI,[23],3.5 µM
same,TGI,[24],5.23 µM
same,TGI,[26],36.1 µM
same,TGI,[27],5.76 µM
same,TGI,[28],6.49 µM
same,TGI,[29],6.26 µM
same,TGI,[30],20.9 µM
same,TGI,[31],3.73 µM
same,TGI,[32],8.46 µM
same,TGI,[33],4.49 µM
same,TGI,[34],6.13 µM
same,TGI,[35],33.1 µM
same,TGI,[36],16.6 µM
same,TGI,[37],3.81 µM
same,TGI,[38],31.2 µM
same,TGI,[39],3.48 µM
same,TGI,[41],3.38 µM
same,TGI,[42],6.84 µM
same,TGI,[43],4.01 µM
same,TGI,[44],4.54 µM
same,TGI,[45],35.7 µM
same,TGI,[46],10.1 µM
same,TGI,[47],3.14 µM
same,TGI,[48],28.9 µM
same,TGI,[49],5.04 µM
same,TGI,[50],26.6 µM
same,TGI,[51],1.36 µM
same,TGI,[52],8.09 µM
same,TGI,[53],5.17 µM
same,TGI,[54],22.5 µM
same,TGI,[55],42.2 µM
same,TGI,[56],9.93 µM
same,TGI,[57],3.49 µM
same,TGI,[58],24.5 µM
COc1nc(N(C)C)nc2c1n(C)c[n+]2C,TGI,[1],> 100 µM
same,TGI,[2],> 100 µM
same,TGI,[3],> 100 µM
same,TGI,[4],> 100 µM
same,TGI,[5],> 100 µM
same,TGI,[6],> 100 µM
same,TGI,[7],> 100 µM
same,TGI,[8],> 100 µM
same,TGI,[9],> 100 µM
same,TGI,[10],> 100 µM
same,TGI,[11],> 100 µM
same,TGI,[12],> 100 µM
same,TGI,[13],> 100 µM
same,TGI,[15],> 100 µM
same,TGI,[16],> 100 µM
same,TGI,[18],> 100 µM
same,TGI,[19],> 100 µM
same,TGI,[20],> 100 µM
same,TGI,[21],> 100 µM
same,TGI,[22],> 100 µM
same,TGI,[23],> 100 µM
same,TGI,[24],> 100 µM
same,TGI,[25],> 100 µM
same,TGI,[26],> 100 µM
same,TGI,[27],> 100 µM
same,TGI,[28],> 100 µM
same,TGI,[29],> 100 µM
same,TGI,[30],> 100 µM
same,TGI,[31],> 100 µM
same,TGI,[32],> 100 µM
same,TGI,[33],> 100 µM
same,TGI,[34],> 100 µM
same,TGI,[35],> 100 µM
same,TGI,[36],> 100 µM
same,TGI,[37],> 100 µM
same,TGI,[38],> 100 µM
same,TGI,[39],> 100 µM
same,TGI,[41],> 100 µM
same,TGI,[42],> 100 µM
same,TGI,[43],> 100 µM
same,TGI,[44],> 100 µM
same,TGI,[45],> 100 µM
same,TGI,[46],> 100 µM
same,TGI,[47],> 100 µM
same,TGI,[48],> 100 µM
same,TGI,[49],> 100 µM
same,TGI,[50],> 100 µM
same,TGI,[51],> 100 µM
same,TGI,[52],> 100 µM
same,TGI,[53],> 100 µM
same,TGI,[54],> 100 µM
same,TGI,[55],> 100 µM
same,TGI,[56],> 100 µM
same,TGI,[57],> 100 µM
same,TGI,[58],> 100 µM
COc1ccc(N(C)C(=O)N(C)c2ccc([N+](=O)[O-])cc2)cc1,TGI,[1],> 100 µM
same,TGI,[2],> 100 µM
same,TGI,[3],45.3 µM
same,TGI,[5],41.3 µM
same,TGI,[7],91.6 µM
same,TGI,[8],68.4 µM
same,TGI,[9],> 100 µM
same,TGI,[10],> 100 µM
same,TGI,[12],> 100 µM
same,TGI,[13],18.6 µM
same,TGI,[14],> 100 µM
same,TGI,[15],> 100 µM
same,TGI,[16],> 100 µM
same,TGI,[17],> 100 µM
same,TGI,[18],24.2 µM
same,TGI,[19],> 100 µM
same,TGI,[59],> 100 µM
same,TGI,[20],> 100 µM
same,TGI,[21],> 100 µM
same,TGI,[22],73.3 µM
same,TGI,[23],> 100 µM
same,TGI,[24],96.6 µM
same,TGI,[25],> 100 µM
same,TGI,[26],> 100 µM
same,TGI,[27],84.2 µM
same,TGI,[28],> 100 µM
same,TGI,[29],76.2 µM
same,TGI,[30],> 100 µM
same,TGI,[31],> 100 µM
same,TGI,[32],> 100 µM
same,TGI,[33],> 100 µM
same,TGI,[34],> 100 µM
same,TGI,[35],> 100 µM
same,TGI,[36],> 100 µM
same,TGI,[37],> 100 µM
same,TGI,[38],91.5 µM
same,TGI,[39],> 100 µM
same,TGI,[40],> 100 µM
same,TGI,[41],> 100 µM
same,TGI,[42],> 100 µM
same,TGI,[43],> 100 µM
same,TGI,[44],> 100 µM
same,TGI,[45],> 100 µM
same,TGI,[46],> 100 µM
same,TGI,[47],> 100 µM
same,TGI,[48],> 100 µM
same,TGI,[49],> 100 µM
same,TGI,[50],> 100 µM
same,TGI,[51],> 100 µM
same,TGI,[52],> 100 µM
same,TGI,[53],> 100 µM
same,TGI,[54],> 100 µM
same,TGI,[55],> 100 µM
same,TGI,[56],> 100 µM
same,TGI,[57],> 100 µM
same,TGI,[58],> 100 µM
